Source: US10123998B2, “Kinase modulation, and indications therefor” (Plexxikon Inc., priority 2012, dated 2018)

Assays:
[1] = test system: PLP139-151-induced relapsing-remitting EAE; assay: PLP139-151-induced relapsing-remitting EAE; design: species or system SJL mice; details: mouse, in vivo
Protocol: Method: CSF-1R inhibitors as described herein were tested in mouse relapsing-remitting multiple sclerosis (MS) model. […] Female […] mice 6 weeks old were purchased from Harlan and maintained for 1 week prior to beginning the experiment. Mice were randomly assigned into groups of 10 animals (plus the additional mice per group to be used for histology), and primed with 50 μg PLP139-151/CFA on Day 0. On Day 16-20 post disease induction (onset of remission), the experimental compounds in dose groups 2 and 3 were administered daily via gavage to the groups for a period of 3 weeks (with the final treatment on ˜Day 37-41 post disease induction). On Day 10 post disease induction (disease onset) treatment of group 4 began, and continued to the same day as groups 2 and 3 (˜Day 37-41 post disease induction). After administration of the test compounds, the mice were followed until Day 45 to assess clinical disease, delayed type hypersensitivity (DTH), and various in vitro immunological assays. Histological signs of disease at various time points during the disease course were also assessed. […]

[2] = test system: Osteoclast precursor cells; assay: Osteoclast differentiation assay; assay type: cell-based
Protocol: Further, an osteoclast differentiation assay is used to assess the efficacy of Fms inhibitors for treating bone disease such as osteoarthritis. On day 0, Osteoclast Medium BulletKit (Lonza catalog # PT-8001, containing Media, FBS, L-Glutamine, PenStrep, RANKL, and M-CSF) media is thawed and the FBS, L-glutamine and PenStrep from the kit is added to 100 mL of Osteoclast Precursor Basal medium to provide the Osteoclast Precursor Growth Medium (OPGM). This is warmed to 37° C. Osteoclast precursor cells (Lonza catalog #2T-110) frozen in cryovial are warmed to 37° C. and transferred to a 50 mL conical tube. The cryovial is rinsed with OPGM and added dropwise to the conical tube of cells with swirling, then the volume is adjusted to 20-30 mL with addition of OPGM. The cells are centrifuged at 200×g for 15 minutes at room temperature and all but approximately 3 mL of supernatant is removed to a new conical tube. The cells are suspended in the remaining supernatant and the volume is adjusted to 10-15 mL with OPGM added dropwise with swirling. The cells are centrifuged at 200×g for 15 minutes at room temperature and all but approximately 1 mL of supernatant is removed. The cells are resuspended in the remaining supernatant, counted, and the volume adjusted with an appropriate amount of OPGM to provide approximately 1×10^5 cells/mL. A 0.1 mL aliquot of cells is added to each well of a 96-well plate. Compound to be tested is prepared in DMSO for plating at a high concentration of 2.5 mM, with 8 point 1:3 serial dilutions. A 1 μL aliquot of each compound dilution is added to a 96 well v-bottom polypropylene plate and 0.124 mL of OPGM is added to the compound. Then 50 μL of the compound in OPGM is added to the osteoclast precursor cells in 96-well plate (providing highest test concentration of 5 μM). RANKL (2 μg) from the BulletKit is reconstituted in 1 mL of OPGM, then vortexed and centrifuged briefly. A 792 μL aliquot of RANKL is added to 6 mL of OPGM and 50 μL is added to low control wells. Then 76.6 μL M-CSF ([…]) from the BulletKit is added to the remaining 5.8 mL of OPGM/RANKL solution (4×RANKL/M-CSF/OPGM). A 50 μL aliquot of this is added to the remaining wells, and the remainder is stored at 4° C. for later use. The plate is incubated at 37° C. for 6 days, then the remaining OPGM/RANKL/M-CSF solution is warmed to 37° C. The remaining approximately 198 μL is combined with 6 mL of OPGM. The media is aspirated from the osteoclast wells and 100 μL of RANKL/OPGM is added to the low controls. The remaining RANKL/OPGM is combined with the approximately 18.5 μL of remaining M-CSF. The remaining 4×RANKL/M-CSF/OPGM from day 0 is diluted to 1× and combined with the freshly prepared solution. A 0.1 mL aliquot of this is added to each osteoclast well and incubated for 37° C. for 1 day. The Acid Phosphatase kit (Cayman Chemical catalog #10008051) is warmed to room temperature. The assay buffer is diluted 5 mL with 45 mL of water. For each plate, two substrate tablets are dissolved in 4.5 mL of the assay buffer, mixing by vortex to break up the tablet. Stop solution is diluted 12 mL with 36 mL of water. In a tissue culture hood, 20 μL of each osteoclast well supernatant is transferred to a 96 well plate. A 30 μL aliquot of the substrate solution is added to each well and incubated at 37° C. for 20 minutes, then added […] stop solution to each well. The absorbance of each well is read at 405 nm on Safire plate reader. The absorbance reading is plotted vs. concentration to provide the IC50 for each compound.

| IC50 [2] [nM] | Compound | clinical scores after discontinuation of therapy [1] |
| --- | --- | --- |
|  | CCCCCCCCc1ccc(CCC(N)(CO)CO)cc1 [FTY-720] | rapid rebound of clinical scores |
| < 100 | COc1ncc(CNc2ccc(Cc3c[nH]c4ncc(C)cc34)c(F)n2)cc1F [Compound P-2048, (5-Fluoro-6-methoxy-pyridin-3-ylmethyl)-[6-fluoro-5-(5-methyl-1H-pyrrolo[2,3-b]pyridin-3-ylmethyl)-pyridin-2-yl]-amine] |  |
